Test results reported in ChEMBL document CHEMBL5316298, “Discovery of Amphiphilic Xanthohumol Derivatives as Membrane-Targeting Antimicrobials against Methicillin-Resistant Staphylococcus aureus” (J Med Chem, 2023).
Values after ≈ are worked out from the molar mass of the structure shown. Active and inactive are the calls of the source. The calls are words filed in the database; no cut-off is given here.

Legend:
[1] = tested on: Staphylococcus aureus; test: Antibacterial activity against methicillin-resistant Staphylococcus aureus clinical isolate 5 incubated for 16 to 18 hrs by CLSI-based microbroth dilution method; type: functional; details: time 16-18 hrs
[2] = tested on: Staphylococcus aureus; test: Antibacterial activity against methicillin-resistant Staphylococcus aureus clinical isolate 6 incubated for 16 to 18 hrs by CLSI-based microbroth dilution method; type: functional; details: time 16-18 hrs
[3] = tested on: Staphylococcus aureus; test: Antibacterial activity against Staphylococcus aureus A7 assessed as inhibition of bacterial growth by CLSI based microdilution broth assay; type: functional
[4] = tested on: Staphylococcus aureus; test: Antibacterial activity against methicillin-resistant Staphylococcus aureus clinical isolate 4 incubated for 16 to 18 hrs by CLSI-based microbroth dilution method; type: functional; details: time 16-18 hrs
[5] = tested on: Staphylococcus aureus; test: Antibacterial activity against methicillin-resistant Staphylococcus aureus clinical isolate 7 incubated for 16 to 18 hrs by CLSI-based microbroth dilution method; type: functional; details: time 16-18 hrs
[6] = Hemolytic activity in sheep erythrocytes incubated for 1 hr by absorbance based analysis; type: toxicity, cell-based, Ovis aries, Erythrocyte
[7] = tested on: Staphylococcus aureus; test: Antibacterial activity against methicillin-resistant Staphylococcus aureus clinical isolate 8 incubated for 16 to 18 hrs by CLSI-based microbroth dilution method; type: functional; details: time 16-18 hrs
[8] = tested on: Staphylococcus aureus; test: Antibacterial activity against Staphylococcus aureus ATCC 29213 assessed as inhibition of bacterial growth by CLSI based microdilution broth assay; type: functional
[9] = tested on: Staphylococcus aureus; test: Antibacterial activity against methicillin-resistant Staphylococcus aureus clinical isolate 10 incubated for 16 to 18 hrs by CLSI-based microbroth dilution method; type: functional; details: time 16-18 hrs
[10] = tested on: Staphylococcus aureus; test: Antibacterial activity against methicillin-resistant Staphylococcus aureus clinical isolate 3 incubated for 16 to 18 hrs by CLSI-based microbroth dilution method; type: functional; details: time 16-18 hrs
[11] = tested on: Staphylococcus aureus; test: Antibacterial activity against methicillin-resistant Staphylococcus aureus clinical isolate 2 incubated for 16 to 18 hrs by CLSI-based microbroth dilution method; type: functional; details: time 16-18 hrs
[12] = tested on: Staphylococcus aureus; test: Antibacterial activity against Staphylococcus aureus D5 assessed as inhibition of bacterial growth by CLSI based microdilution broth assay; type: functional
[13] = tested on: Staphylococcus aureus; test: Antibacterial activity against Staphylococcus aureus ATCC 29213 incubated for 16 to 18 hrs by CLSI-based microbroth dilution method; type: functional; details: time 16-18 hrs
[14] = tested on: Staphylococcus aureus; test: Antibacterial activity against methicillin-resistant Staphylococcus aureus clinical isolate 9 incubated for 16 to 18 hrs by CLSI-based microbroth dilution method; type: functional; details: time 16-18 hrs
[15] = tested on: Staphylococcus aureus; test: Antibacterial activity against methicillin-resistant Staphylococcus aureus clinical isolate 1 incubated for 16 to 18 hrs by CLSI-based microbroth dilution method; type: functional; details: time 16-18 hrs
[16] = Toxicity in KM mouse infected with methicillin-resistant Staphylococcus aureus 3 assessed as liver damage at 5 mg/kg administered into skin infection site measured after 24 hrs by H and E staining based analysis; type: organism-based; details: in vivo, topical_or_ocular
[17] = tested on: Staphylococcus aureus; test: Antibacterial activity against methicillin-resistant Staphylococcus aureus 3 infected in KM mouse assessed as reduction in bacterial load at infection site at 5 mg/kg administered into skin infection site measured after 24 hrs relative to control; type: functional; design: scale not given: the % may be the effect or the level left
[18] = Toxicity in KM mouse infected with methicillin-resistant Staphylococcus aureus 3 assessed as histopathological abnormalities in spleen at 5 mg/kg administered into skin infection site measured after 24 hrs by H and E staining based analysis; type: organism-based; details: in vivo, topical_or_ocular
[19] = tested on: Staphylococcus aureus; test: Antibacterial activity against methicillin-resistant Staphylococcus aureus 3 infected in KM mouse assessed as reduction in bacterial load at infection site by measuring colony forming units at 5 mg/kg administered into skin infection site measured after 24 hrs; type: functional
[20] = Toxicity in KM mouse infected with methicillin-resistant Staphylococcus aureus 3 assessed as histopathological abnormalities in heart at 5 mg/kg administered into skin infection site measured after 24 hrs by H and E staining based analysis; type: organism-based; details: in vivo, topical_or_ocular
[21] = Toxicity in KM mouse infected with methicillin-resistant Staphylococcus aureus 3 assessed as spleen damage at 5 mg/kg administered into skin infection site measured after 24 hrs by H and E staining based analysis; type: organism-based; details: in vivo, topical_or_ocular
[22] = Toxicity in KM mouse infected with methicillin-resistant Staphylococcus aureus 3 assessed as histopathological abnormalities in lungs at 5 mg/kg administered into skin infection site measured after 24 hrs by H and E staining based analysis; type: organism-based; details: in vivo, topical_or_ocular
[23] = Toxicity in KM mouse infected with methicillin-resistant Staphylococcus aureus 3 assessed as vacuolar degeneration in the kidneys at 5 mg/kg administered into skin infection site measured after 24 hrs by H and E staining based analysis; type: organism-based; details: in vivo, topical_or_ocular
[24] = tested on: Staphylococcus aureus; test: Antibacterial activity against methicillin-resistant Staphylococcus aureus 3 infected in KM mouse assessed as reduction in abscesses on dorsal surface of skin at 5 mg/kg administered into skin infection site measured after 24 hrs; type: functional, organism-based
[25] = Toxicity in KM mouse infected with methicillin-resistant Staphylococcus aureus 3 assessed as kidneys damage at 5 mg/kg administered into skin infection site measured after 24 hrs by H and E staining based analysis; type: organism-based; details: in vivo, topical_or_ocular
[26] = Toxicity in KM mouse infected with methicillin-resistant Staphylococcus aureus 3 assessed as lung damage at 5 mg/kg administered into skin infection site measured after 24 hrs by H and E staining based analysis; type: organism-based; details: in vivo, topical_or_ocular
[27] = Toxicity in KM mouse infected with methicillin-resistant Staphylococcus aureus 3 assessed as swelling of renal tubular epithelial cells with granular degeneration at 5 mg/kg administered into skin infection site measured after 24 hrs by H and E staining based analysis; type: organism-based; details: in vivo, topical_or_ocular
[28] = tested on: Staphylococcus aureus; test: Antibacterial activity against methicillin-resistant Staphylococcus aureus 3 infected in KM mouse assessed as reduction in inflammatory cells in subcutaneous tissue at 5 mg/kg administered into skin infection site measured after 24 hrs by H and E staining based analysis; type: functional, organism-based
[29] = tested on: Staphylococcus aureus; test: Antibacterial activity against methicillin-resistant Staphylococcus aureus 3 infected in KM mouse assessed as reduction in abscesses inside the skin at 5 mg/kg administered into skin infection site measured after 24 hrs; type: functional, organism-based
[30] = Toxicity in KM mouse infected with methicillin-resistant Staphylococcus aureus 3 assessed as heart damage at 5 mg/kg administered into skin infection site measured after 24 hrs by H and E staining based analysis; type: organism-based; details: in vivo, topical_or_ocular
[31] = Toxicity in KM mouse infected with methicillin-resistant Staphylococcus aureus 3 assessed as multifocal enlargement of hepatocytes with cytoplasmic foamy swelling at 5 mg/kg administered into skin infection site measured after 24 hrs by H and E staining based analysis; type: organism-based; details: in vivo, topical_or_ocular
[32] = tested on: Staphylococcus aureus; test: Antibacterial activity against methicillin-resistant Staphylococcus aureus 3 infected in KM mouse assessed as reduction in size of abscesses at 5 mg/kg administered into skin infection site measured after 24 hrs; type: functional, organism-based
[33] = tested on: Cell membrane; test: Induction of membrane depolarization in methicillin-resistant Staphylococcus aureus 3 assessed as increase in fluorescence intensity at 32 ug/ml measured every 2 mins for 20 mins by SYTOX-green dye based fluorescence assay; type: subcellular; details: dose 32.0 µg/ml

For `COc1cc(O)c(CC=C(C)C)c(O)c1C(=O)/C=C/c1ccc(O)cc1` [XANTHOHUMOL], the MIC [1] was 8 µg/mL (≈ 22.6 µM), the MIC [2] was 16 µg/mL (≈ 45.1 µM) and the MIC [3] was 15.6 µg/mL (≈ 44 µM). The MIC [4] was 4 µg/mL (≈ 11.3 µM), the MIC [5] was 8 µg/mL (≈ 22.6 µM) and the HC50 at 1 h [6] was 196 µg/mL. It also gave an MIC [7] of 8 µg/mL (≈ 22.6 µM), an MIC [8] of 15.6 µg/mL (≈ 44 µM) and an MIC [9] of 8 µg/mL (≈ 22.6 µM). For the same compound, the MIC [10] was 8 µg/mL (≈ 22.6 µM), the MIC [11] was 8 µg/mL (≈ 22.6 µM) and the MIC [12] was 15.6 µg/mL (≈ 44 µM). For the same compound, the MIC [13] was 16 µg/mL (≈ 45.1 µM), the MIC [14] was 8 µg/mL (≈ 22.6 µM) and the MIC [15] was 8 µg/mL (≈ 22.6 µM).

In the case of `CN[C@H](CC(C)C)C(=O)N[C@H]1C(=O)N[C@@H](CC(N)=O)C(=O)N[C@H]2C(=O)N[C@H]3C(=O)N[C@H](C(=O)N[C@H](C(=O)O)c4cc(O)cc(O)c4-c4cc3ccc4O)[C@H](O)c3ccc(c(Cl)c3)Oc3cc2cc(c3O[C@@H]2O[C@H](CO)[C@@H](O)[C@H](O)[C@H]2O[C@H]2C[C@](C)(N)[C@H](O)[C@H](C)O2)Oc2ccc(cc2Cl)[C@H]1O` [VANCOMYCIN], the Activity [16] is reported as “Non-Toxic”, the Activity [17] is reported as 99.479% and the Activity [18] is reported as “Non-Toxic”. For the same compound, the Activity [19] was 2.2 log10CFU/g, the Activity [20] was “Non-Toxic” and the Activity [21] was “Non-Toxic”. For the same compound, the Activity [22] was “Non-Toxic”, the Activity [23] was “Non-Toxic” and the Activity [24] was “inactive”. The Activity [25] was “Non-Toxic”, the Activity [26] was “Non-Toxic” and the Activity [27] was “Non-Toxic”. The Activity [28] was “Active”, the Activity [29] was “inactive” and the Activity [30] was “Non-Toxic”. For the same compound, the Activity [31] was “Non-Toxic” and the Activity [32] was “Active”.

With `CC[C@H](C)[C@H](NC(=O)CN)C(=O)NCC(=O)N[C@@H](C)C(=O)N[C@H](C(=O)N[C@@H](CC(C)C)C(=O)N[C@@H](CCCCN)C(=O)N[C@H](C(=O)N[C@@H](CC(C)C)C(=O)N[C@H](C(=O)N[C@H](C(=O)NCC(=O)N[C@@H](CC(C)C)C(=O)N1CCC[C@H]1C(=O)N[C@@H](C)C(=O)N[C@@H](CC(C)C)C(=O)N[C@H](C(=O)N[C@@H](CO)C(=O)N[C@@H](Cc1c[nH]c2ccccc12)C(=O)N[C@H](C(=O)N[C@@H](CCCCN)C(=O)N[C@@H](CCCNC(=N)N)C(=O)N[C@@H](CCCCN)C(=O)N[C@@H](CCCNC(=N)N)C(=O)N[C@@H](CCC(N)=O)C(=O)N[C@@H](CCC(N)=O)C(N)=O)[C@@H](C)CC)[C@@H](C)CC)[C@@H](C)O)[C@@H](C)O)C(C)C)C(C)C` the Activity [33] was “Active”.
